Source: US9943614B2, “Cationic steroid antimicrobial diagnostic, detection, screening and imaging methods” (BRIGHAM YOUNG UNIVERSITY, priority 2008, dated 2018)

Key:
bacteria = details: cited from earlier work
S. aureus ATCC 25923 = experiment: In vitro binding of 99mTc-labelled agents to viable S. aureus bacteria; design: species or system Staphylococcus aureus; details: 10 μg concentration, time not stated
HIV = details: cited from earlier work

SMILES | in-vitro binding in published reports (bacteria) [%] | In vitro binding to bacteria (S. aureus ATCC 25923) [%] | HIV infection of primary human CD4+ T cells (HIV)
O=C([O-])CN(CCN(CC(=O)[O-])CC(=O)[O-])CCN(CC(=O)[O-])CC(=O)[O-].[99Tc+4] [Compound 99mTc-DTPA] | > 8 | ~10 | 
CCCCCCCCNCCC[C@@H](C)[C@H]1CC[C@H]2[C@@H]3[C@H](OCCCN)C[C@@H]4C[C@H](OCCCN)CC[C@]4(C)[C@H]3C[C@H](OCCCN)[C@]12C [CSA-13] |  |  | inhibit HIV infection
